Source: patent US20260144769A1, “4-PHENYLBUTYRATE RESTORED GABA UPTAKE AND REDUCED SEIZURES IN SLC6A1 VARIANT-MEDIATED DISORDERS” (Vanderbilt University, priority 2022, published 2026)

System: GAT-1 (SLC6A1^+/S295L)
Assay: 3H GABA uptake, cortical astrocytes from SLC6A1^+/S295L knockin mice
Type: cell-based, mouse
Settings: S295L heterozygous astrocytes; PBA 2 mM, 24 hr; SNAP5114 30 μM
Description: Mouse cortical astrocytes or neurons were cultured from postnatal pus at day 0-3 days old for astrocytes and day 0 for neurons from the SLC6A1^+/A288V or SLC6A1^+/S295L mouse line. FIGS. 7A-B show astrocytes under passage 2 were grown in […] dishes and passaged into 35-mm^2 dishes before GABA uptake assay.
FIGS. 7C-D show neurons directly cultured in the 35-mm^2 dishes and GABA uptake was evaluated between day 15-17 days after culture. CI-966 (50 μM) and NNC711 (35 μM) was applied 30 min before preincubation and removed during preincubation. GAT-3 inhibitor SNAP5114 (30 μM) was applied during GABA uptake to make sure only GAT-1 activity was measured. The wildtype astrocytes (FIGS. 7A-B) or cortical neurons (FIGS. 7C-D) of either SLC6A1^+/A288V or SLC6A1^+/S295L were taken as 1. The cultures derived from each mutant mouse was compared to the culture from its own wildtype littermates. […] The wildtype data were pooled from two mouse lines. […] The graph represents the relative GABA uptake level normalized to cells of its own genotype treated with DMSO. CI-966 (50 μM) or NNC-711 (35 μM) was applied 30 min before preincubation and removed during preincubation. Two-way analysis of variance followed by Bonferroni multiple comparison test was used. Values were expressed as mean±S.E.M. In FIG. 7A and FIG. 7C, ***p<0.001 vs. wt; § § § P<0.001 S295L vs. A288V. […]

Compound: O=C(O)CCCc1ccccc1 [PBA, 4-phenylbutyric acid]
- GABA uptake activity normalized to its own DMSO condition: 1.54±0.13
